# Measured values as given in US20190100725A1, “CELL CULTURE MEDIUM AND CULTURE MEDIUM SUPPLEMENT” (Institute of Biophysics, Chinese Academy of Sciences, priority 2016, published 2019).
# Assays:
# Assay type in all cases: cell-based, human
# hiPSC lines = assay: Cardiac differentiation of hiPSC lines in S12 medium, FACS of CTNT-positive cells; details: for percentage of CTNT-positive cells after glucose deprivation enrichment: 2 days of glucose deprivation (glucose replaced with DL-lactate); for percentage of CTNT-positive cells before glucose deprivation enrichment: hiPSC line XVF 4 in S12 medium, 1 μM, days 5-8
# Protocol: (§1) For small molecule-induced cardiac differentiation, hESC line H7 or hiPSCs were digested with Versene solution into single cells and seeded on VTN-NC-coated, 24-well plates at a density of 2.5-3.0×10^5 cells/well. Y27632 (10 μM) was supplemented on the first day and withdrawn thereafter. Cultures were maintained in E8 medium for 2-3 days until they reached 90% confluence. To initiate cell differentiation (designated as day 0), the medium was changed to S12 medium without insulin. Cells were treated with 4-8 μM CHIR99021 (Tocris, 4423) for 1 day. Then, the medium was replaced with fresh medium without CHIR99021. At day 3, 5 μM IWR-1 (Sigma-Aldrich, 10161) was supplied with fresh medium for 2 days. From day 5, insulin-containing S12 medium was used. Thereafter, the medium was changed every other day (FIG. 1a).
# (§2) For directed differentiation of atrial or ventricular myocytes, 1 μM RA (Sigma-Aldrich, R2625) or 1 μM BMS493 (Tocris, 3509) was added to the differentiating cultures during days 5-8 of differentiation as described previously^9.
# (§3) Cardiomyocytes were digested into single cells with 0.25% trypsin-EDTA (Life Technology, 25200-072) at 37° C. for about 5 min, and washed with buffer B, which contains 0.5% bovine serum albumin (Sigma, A9418-50G) in phosphate-buffered saline (PBS). Then the cells were fixed with 4% paraformaldehyde at room temperature and washed with buffer A, which contains 0.5% bovine serum albumin and 0.1% saponin (Sigma-Aldrich, S7900) in PBS. The cells were then incubated with an anti-human CTNT primary antibody (R&D systems, MAB1874) for 40 min at 4° C. and washed with buffer A, followed by incubation with a goat anti-mouse FITC-conjugated secondary antibody (ZSGB-BIO, ZF-0312) for 40 min at 4° C. Data were collected on FACScalibur (Becton Dickinson) and analyzed with FlowJo software (Treestar).
# hiPSC line XVF 4 [1] = assay: QPCR of IRX4 and NR2F2 in RA- or BMS493-treated hiPSC cultures; details: 14-day-old cultures; BMS493-treated versus RA-treated
# Protocol: as §2
# Total RNA was isolated using RNeasy Plus Mini kit (Qiagen, 74134). One microgram of total RNA was reverse transcribed using the PrimeScript™ RT reagent kit with gDNA eraser (Takara, RR047A). RT-PCR was performed with 2×Taq Mix (CW-BIO, CW0682C) according to the manufacturer's instructions. PCR products were analyzed using 1.5% agarose gel electrophoresis. QPCR was performed in triplicate using the 2×QuantiFast SYBR Green I PCR Master Mix (Qiagen, 204057) on a Rotor Gene 6200 Real-Time PCR Machine (Corbett) with an annealing temperature of 60° C. The expression of each gene was normalized to GAPDH gene expression. The primer sequences are listed in Table 4 (primer sequences for RT-PCR) and Table 5 (primer sequences for QPCR).
# hiPSC line XVF 4 [2] = assay: Double immunofluorescence staining of MLC2V and CTNT in 60-day-old cultures
# Protocol: Differentiated cultures were digested with 0.25% trypsin-EDTA, and the cells were plated on 0.1% gelatin-coated coverslips for 5 days to allow full attachment. The coverslips were washed with PBS and fixed in 4% paraformaldehyde for 20 min at 4° C. The fixed cells were then permeabilized with 0.1% Triton X-100 for 20 min at 4° C., and blocked with 10% goat serum (ZSGB-BIO, ZLI-9021) for 1 h at room temperature. Then, the cells were incubated overnight at 4° C. with the following primary antibodies: anti-human CTNT (R&D systems, MAB1874), mouse anti-human α-actinin (Sigma-Aldrich, A7811), mouse anti-human MHC (Abcam, ab15), goat anti-human α-SMA (Abcam, ab5694), mouse anti-human MLC2A (Synaptic Systems, 311011) and rabbit anti-human MLC2V (ProteinTech, 10906-1-AP). Goat anti-mouse 488- (ZSGB-BIO, ZF-0512) or 594-conjugated secondary antibody (ZSGB-BIO, ZF-0513), and goat anti-rabbit 488- (ZSGB-BIO, ZF-0511) or 594-conjugated secondary antibody (ZSGB-BIO, ZF-0516) were used as secondary antibodies. Nuclei were counterstained with 4′,6-diamidino-2-phenylindole (DAPI) (Sigma-Aldrich, D0542). Immunofluorescence images were visualized and recorded using an Olympus microscope system X51 or Olympus LSCM FV1000 (Olympus).
# [3] = system: hiPSC-derived cardiomyocytes; assay: Whole-cell patch clamp classification of AP types in RA- and BMS493-treated cultures
# Protocol: The dissociation method used has been described previously^9. Briefly, 25-30-day-old differentiated cardiomyocyte clusters were washed with a low Ca^2+ solution, and then incubated in 1 mg/mL collagenase II (Life Technology, 17101-015) dissolved in a low Ca^2+ solution for 30-40 min at 37° C. The isolated cells were suspended in S12 medium containing 10% FBS, transferred to 0.1% gelatin-coated glass coverslips, and then maintained in a 5% CO2 incubator at 37° C.
# Action potential (AP) and ion channel activities, which are critical for normal functions of cardiomyocytes, were investigated using whole-cell patch clamp technology on single cardiomyocytes. The classification of nodal-, atrial- and ventricular-like APs was based on the AP properties. Particularly, nodal-like AP has a slower maximal upstroke velocity (dV/dt), smaller action potential amplitude (APA), depolarized maximum diastolic potential (MDP), and faster beating rate than those of atrial- and ventricular-like APs. An AP duration at 90%0, of repolarization (APD90) value of 150 ms was used to classify atrial- and ventricular-like APs, because of the significant plateau phase of ventricular AP^21, 22. […] The parameters of the three AP types recorded were also analyzed (FIG. 3c).
# [4] = system: hPSC-derived ventricular-like cardiomyocytes; assay: Perforated whole-cell patch clamp, evoked AP of ventricular-like cardiomyocytes paced at 1 Hz; details: for APA / APD50 / APD90 / MDP / dV/dT: evoked AP, 1 Hz, percentage of untreated cardiomyocytes, mean±SEM
# Protocol: Perforated whole-cell recording was used for pharmacological tests.
# Nifedipine (Sigma-Aldrich, N7634) was prepared in DMSO. […] Other chemicals were from Sigma-Aldrich.
# hESC line H7 = assay: Cardiac differentiation of hESC line H7, FACS of CTNT-positive cells and cardiomyocyte yield; details: for cardiac differentiation efficacy (in words): individual addition of the antioxidant to S12 basal medium
# Protocol: as §1, §3
Structure (SMILES),APA ([4]; 1 nM),APD50 ([4]; 1 nM),APD90 ([4]; 1 nM),MDP ([4]; 1 nM),dV/dT ([4]; 1 nM),APA ([4]; 10 nM),APD50 ([4]; 10 nM),APD90 ([4]; 10 nM),MDP ([4]; 10 nM),dV/dT ([4]; 10 nM),APA ([4]; 100 nM),APD50 ([4]; 100 nM),APD90 ([4]; 100 nM),MDP ([4]; 100 nM),dV/dT ([4]; 100 nM),APA ([4]; 1000 nM),APD50 ([4]; 1000 nM),APD90 ([4]; 1000 nM),MDP ([4]; 1000 nM),cardiac differentiation efficacy (in words) (hESC line H7),other results
CC1(C)CC=C(C#Cc2ccccc2)c2cc(/C=C/c3ccc(C(=O)O)cc3)ccc21 [BMS493],,,,,,,,,,,,,,,,,,,,,percentage of CTNT-positive cells after glucose deprivation enrichment (hiPSC lines): 94.3%; percentage of CTNT-positive cells before glucose deprivation enrichment (hiPSC lines): 86.3%; expression level of ventricular-specific gene IRX4 (hiPSC line XVF 4 [1]): significantly higher; MLC2V expression in cardiomyocytes (hiPSC line XVF 4 [2]): widely expressed; percentage of recorded APs that were ventricular-like [3]: 93.3%
Cc1cccc(CCN2CCC(C(=O)c3ccc(NS(C)(=O)=O)cc3)CC2)n1 [E-4031],102.9 ± 1.1%,103.8 ± 3.8%,102.1 ± 3.1%,101.9 ± 1.2%,101.2 ± 8.0%,103.8 ± 1.5%,110.1 ± 5.4%,112.1 ± 5.0%,101.5 ± 1.7%,112.4 ± 5.5%,103.0 ± 2.3%,144.0 ± 6.7 %,169.6±13.4%,99.6 ± 2.9%,111.4 ± 9.6%,95.6 ± 4.0%,151.1 ± 7.5 %,195.6±12.3%,92.4 ± 2.8%,,"effects on the AP ([4]; 10 nM, 1 Hz stimulation): minor effects; dV/dT ([4]; 1000 nM): 95.6 ± 7.4%; AP duration ([4]; 1 Hz stimulation (0.1-0.3 nA), dose dependence): prolonged the AP duration in a dose-dependent manner; change in APA and dV/dt ([4]; 1 Hz stimulation, up to 1000 nM): no significant change"
CC(C)NCC(O)c1ccc(O)c(O)c1 (stereo not drawn) [Isoproterenol],99.9 ± 1.7%,99.1 ± 0.7%,97.3 ± 1.7%,101.2 ± 1.5%,99.9 ± 3.0%,101.7 ± 1.6%,93.0 ± 1.6%,92.0 ± 2.5%,102.8 ± 2.3%,108.1 ± 1.8%,102.1 ± 2.5%,90.7 ± 1.8%,90.8 ± 1.8%,104.8 ± 3.7%,105.6 ± 2.5%,99.0 ± 5.2%,87.0 ± 1.6 %,87.3 ± 1.6 %,101.8 ± 5.0%,,"dV/dT ([4]; 1000 nM): 105.3 ± 3.1%; APD90 (in words) ([4]; 1 Hz stimulation): minor reduction; effects on the parameters of AP ([4]; 1 Hz stimulation, except APD90): no significant effects"
O=C1O[C@H]([C@@H](O)CO)C(O)=C1O [L-ascorbic acid],,,,,,,,,,,,,,,,,,,,marginally improved,
CC(=O)N[C@@H](CS)C(=O)O [N-acetyl-L-cysteine],,,,,,,,,,,,,,,,,,,,marginally improved,
COC(=O)C1=C(C)NC(C)=C(C(=O)OC)C1c1ccccc1[N+](=O)[O-] [Nifedipine],96.7 ± 2.7%,92.7 ± 2.1%,94.6 ± 2.0%,99.7 ± 2.7%,90.6 ± 4.1%,96.2 ± 0.7%,70.1 ± 2.9 %,73.6±2.7%,103.5 ± 1.1%,96.4 ± 5.9%,88.3 ± 2.4%,55.3 ± 4.3 %,60.8±4.3%,100.8 ± 2.9%,86.1 ± 8.8%,73.8 ± 4.4 %,36.0 ± 3.3 %,47.1±6.1%,100.8 ± 3.1%,,dV/dT ([4]; 1000 nM): 60.0 ± 11.3 %
"CC1=C(/C=C/C(C)=C/C=C/C(C)=C/C(=O)O)C(C)(C)CCC1 [RA, retinoic acid]",,,,,,,,,,,,,,,,,,,,,"percentage of CTNT-positive cells after glucose deprivation enrichment (hiPSC lines): 95.7%; percentage of CTNT-positive cells before glucose deprivation enrichment (hiPSC lines): 85%; percentage of recorded APs that were atrial-like ([3]; 30-day-old cardiomyocytes, n=31): 90.3%"
CC(=O)C(=O)[O-].[Na+] [sodium pyruvate],,,,,,,,,,,,,,,,,,,,marginally improved,
Cc1c(C)c2c(c(C)c1O)CCC(C)(C(=O)O)O2 (stereo not drawn) [trolox],,,,,,,,,,,,,,,,,,,,marginally improved,"cardiac differentiation (FACS for CTNT positive cells) (hESC line H7; added to B27-based medium with six compounds removed, VTN-NC first three days): efficiently supported cardiac differentiation"
